Patent publication US20020173511A1, “Serotonergic compositions and methods for treatment of mild cognitive impairment” (priority 2000, published 2002)

Experiments:
[1] = test system: APPs levels in the cerebrospinal fluid; assay: Western blot of secreted APPs in CSF after i.p. injection; assay type: in vivo, guinea pig; settings: for APPs levels in the cerebrospinal fluid relative to saline-injected control: CSF one hour after injection, p<0.05; for Inhibition of the stimulatory effect of dexnorfenfluramine (1 mg/kg) on APPs in CSF: ritanserin 1 mg/kg or ketanserin 2 mg/kg, CSF one hour after injections
Text: (§1) Guinea pigs are acclimatized to animal housing conditions for at least 70 days before receiving drug treatments or CSF withdrawal. CSF is withdrawn from the cisternae magna. Briefly, the dorsal cervical area and the occipital area of the skull is shaved and cleansed with alcohol after anesthesizing the guinea pigs with ketamine. A 33-gauge needle is used to penetrate the skin, the atlanto-occipital membrane and the dura mater in the region between the anterior of the first vertebra, and posterior of the cerebellum and the occipital protuberance. Upon penetration of the cistemae magna, a slight resistance in advancing the needle is felt; CSF is withdrawn via a PE10 polyethylene tubing attached to the needle at one end, and to a 20 ml syringe at the other. No more than 200 μL of CSF is withdrawn from each guinea pig per session or within a 24h interval. Occasionally, blood is present in the CSF; these samples are discarded and not used for analysis. The entire procedure for CSF withdrawal is completed within 5 minutes.
[…] Sterile normal saline is given control guinea pigs. To determine the time-course of APPs secretion, CSF is withdrawn at 1, 2, 4 or 8h after i.p. injections of either 1 mg/kg dexnorfenfluramine or saline. To determine the effect of chronic dexnorfenfluramine administration on secreted and brain APP levels, guinea pigs are injected with 2 mg/kg dexnorfenfluramine for 10 consecutive days. Withdrawal of CSF is performed 2h after dexnorfenfluramine on the tenth day, after which the guinea pigs are sacrificed and brains removed for analysis. Each guinea pig is repeatedly and randomly assigned on different days for either dose-response, for time-course, and for dexnorfenfluramine-5HT antagonist studies of APPs or Aβ secretion.
CSF (1-200 μL) is used for Western blot analysis of secreted APPs. For analysis of APP holoprotein, brain tissue from the cortex and hippocampus are collected in Eppendorf tubes and sonicated in 50 μL lysis buffer (60 mM Tris-HCl, 4%SDS, 20% glycerol, 1 mM dithiotreitol). The samples are boiled for 10 min to inhibit protease activity. The total amount of protein in each sample is measured by the bicinchoninic acid (Sigma) assay. Prior to gel electrophoresis, 1 μL of 5% bromphenol blue solution is added to each sample.
The amount of CSF or cell protein loaded for sodium dodecyl sulfate-polyacrylamide gel electrophoresis (10-20% SDS PAGE; Bio-Rad) is normalized for the amount of protein per sample. Proteins (equivalent to ˜100 μg cell protein/lane) are separated by electrophoresis, electroblotted onto polyvinylidene difluoride membranes (Immobilon-P, Millipore) and blocked in Tris-buffered saline with 0.15% Tween 20 (TBST) containing 5% powdered milk for 30 min. After 2×10 min rinses in TBST, the membranes are incubated in TBST containing an appropriate antibody. Monoclonal antibody 22C11 (from Boehringer-Mannheim) and APP-KPI (from Chemicon) were used to detect the N-terminus and KPI-domain of APP respectively; an antibody against glial fibrillary acidic […] (GFAP) is obtained from Chemicon.
After an overnight incubation, membranes are rinsed in TBST before being treated for lh with a peroxidase-linked secondary antibody. After several rinses in TBST, protein bands are visualized on Kodak X-AR films by an enhanced chemiluminescence method (Amersham). Optical densities of the protein bands are quantitated by laser scanning densitometry (LKB, Bromma, Sweden), and normalized to the densities of those bands generated under control conditions.
Data Analysis—Measurements of cellular and secreted proteins are normalized against those of control groups prepared in parallel and loaded onto the same blot. Analyses of variance (ANOVA) and t-tests for repeated measures are used to evaluate differences between groups (significance level, p=0.05), using drug treatments as the independent variable. Data are presented as means±SE, n=number of independent experiments.

[2] = test system: Aβ1-40 in the cerebrospinal fluid; assay: Aβ40 ELISA of CSF after i.p. injection; assay type: in vivo, guinea pig
Text: as §1, with “minutes. […]” for “minutes.”
(§2) Measurements of soluble Aβ1-40 or Aβ1-42 in the CSF are quantified using the Aβ40 or Aβ42 enzyme-linked immunosorbent assay (ELISA) kit (QBC, Hopkinton, Mass.) using the procedures recommended by the manufacturer. […]

[3] = test system: Aβ1-42 in the cerebrospinal fluid; assay: Aβ42 ELISA of CSF after i.p. injection; assay type: in vivo, guinea pig
Text: as §1, with “minutes. […]” for “minutes.”
as §2

Brain APP holoprotein = assay: Western blot of brain APP holoprotein after chronic administration; assay type: in vivo, guinea pig; settings: 10 consecutive days i.p., 1 mg/kg, p>0.05
[4] = test system: GFAP-immunoreactive cultured astrocytes; assay: APP overexpression in cultured astrocytes; assay type: cell-based, rat
Description: Astrocytes are isolated from cortices from postnatal rats by methods standard in the art. In brief, dissected cortices are dissociated by trypsinization and trituration through a flamepolished Pasteur pipette. Cells are plated onto poly-L-lysine coated 35- or 100 mm culture dishes at densities of about 10-25 cells/mm^2. The initial culture media, minimal essential medium (MEM, Gibco) containing 10% horse serum (BioWhittaker), are aspirated after 2-5 h after plating to remove unattached cells and debris, and replaced with MEM containing 7.5% fetal bovine serum (FBS, BioWhittaker). Half the media is replaced with MEM/7.5% FBS twice weekly. Cells are kept at 37° C. in a humidified 5% CO2/95% air incubator. Media are changed twice weekly. […]
The amount of media or cell protein loaded for sodium dodecyl sulfate-polyacrylamide gel electrophoresis (10-20% SDS PAGE; Bio-Rad) is normalized for the amount of protein per sample. […] Monoclonal antibodies 22C11 and GFAP (both from Boehringer Mannheim) are used to detect the N-terminus of APP and glial fibrillary acidic protein respectively; antisera R37 and R98 (gifts of Dr. F. Kametani, Tokyo Institute of Psychiatry) are used to detected the C-terminus and KPI motifs of APP respectively; antiserum C8 (gift of Dr. D. Selkoe, Women's Hospital, Harvard Medical School, Cambridge, Mass.) is used to detect the C-terminus of APP. […]

[5] = 10 consecutive days i.p., 1 mg/kg
[6] = 0.5, 1, 2 or 4 mg/kg, single injection, p>0.05

Row | Compound | APPs levels in the cerebrospinal fluid relative to saline-injected control ([1]; 0.5 mg/kg i.p.) [fold] | APPs levels in the cerebrospinal fluid relative to saline-injected control ([1]; 1 mg/kg i.p.) [fold] | APPs levels in the CSF relative to control group ([1]; 1 mg/kg, 1h after injection) [fold] | APPs levels in the CSF relative to control group ([1]; 1 mg/kg, 2h after injection) [fold] | APPs levels in the CSF relative to control group ([1]; 1 mg/kg, 4h after injection) [fold] | APPs levels in the CSF relative to control group ([1]; 1 mg/kg, 8h after injection) [fold] | APPs levels in the cerebrospinal fluid relative to saline-injected control ([1]; 2 mg/kg i.p.) [fold] | APPs levels in the cerebrospinal fluid relative to saline-injected control ([1]; 4 mg/kg i.p.) [fold] | Increase of APPs levels in CSF relative to control [1, 5] [fold] | Effect on levels of Aβ1-40 in the cerebrospinal fluid relative to control [2, 6] | Aβ1-40 levels in CSF relative to control [2, 5] | Effect on levels of Aβ1-42 in the cerebrospinal fluid relative to control [3, 6] | Aβ1-42 levels in CSF relative to control [3, 5] | Brain APP holoprotein levels (Brain APP holoprotein) | Effect on APP overexpression in cultured astrocytes [4] | Inhibition of the stimulatory effect of dexnorfenfluramine (1 mg/kg) on APPs in CSF [1]
1 | CC(N)Cc1cccc(C(F)(F)F)c1 (single isomer, unassigned; (+)) [dexnorfenfluramine, (+)2-amino-1-(3-trifluoromethylphenyl) propane] | 1.25 | 1.45 | 1.5 | 2.0 | 1.3 | 1.5 | 1.6 | 1.4 | 1.6 | no significant effect | decreased | no significant effect | decreased | not altered | can inhibit APP overexpression | –
2 | O=C(c1ccc(F)cc1)C1CCN(CCn2c(=O)[nH]c3ccccc3c2=O)CC1 [ketanserin] | – | – | – | – | – | – | – | – | – | – | – | – | – | – | – | completely inhibited
3 | Cc1nc2sccn2c(=O)c1CCN1CCC(=C(c2ccc(F)cc2)c2ccc(F)cc2)CC1 [ritanserin] | – | – | – | – | – | – | – | – | – | – | – | – | – | – | – | completely inhibited
